In a melting point compilation (Tetko et al.; mined from patent text by program, amines drawn as free bases though some values may be those of a salt):

Row | SMILES | melting point [°C]
1 | CCCC/C=C\c1c([C@H](O)[C@H](CCCC)NC(=O)[C@H](CC(C)C)NC(=O)OCc2ccccc2)c1=O | 87 to 94
2 | C=C1CCC2C3CCC4CC(O)C(OCC)CC4(C)C3C(=O)CC12C (stereo not drawn) | 103 to 108
3 | NC(=O)N1CCN2c3ccccc3Cn3cccc3C2C1 (stereo not drawn) | 175 to 177
4 | CCC(=O)CC(=O)c1ccc(C(=O)CC(=O)CC)cc1 | 122 to 124
5 | O=c1[nH]c(=O)n(CCCN2CCC(OC(c3ccccc3)c3ccccc3)CC2)c2ccccc12 | 149 to 151
6 | C/C(=C\C=C\Cn1oc(=O)[nH]c1=O)c1cccc(OCc2nc(-c3ccccc3)oc2C)c1 | 117 to 118
7 | O=c1nc(-c2cccc(Sc3ccncc3)n2)sc2ccccc12 | 245 to 246
8 | Cc1cc(Nc2c(C#N)cnc3cc(-c4csc(C5OCCO5)c4)ccc23)ccc1OCc1ccccn1 | 194 to 196
9 | CON1CCC2(CC1)NC(=O)C(Cl)(c1cc(C)ccc1C)C2=O (stereo not drawn) | 142 to 144
10 | C#CCN1C(=O)COc2cc(F)c(-n3nc4n(c3=O)CCS4)cc21 | 211 to 213
11 | O=C(C1CCN(c2ccncc2)CC1)N1CCN(S(=O)(=O)c2ccc(-c3ccccn3)cc2)CC1 | 224 to 226
12 | O=C(CS(=O)Cc1ccc([N+](=O)[O-])cc1)NO (stereo not drawn) | 227
13 | O=Cc1cc2cc(F)c(F)cc2nc1Cl | 226 to 229
14 | COc1cc(OC)cc(-c2nc[nH]c2-c2ccc(OC)c(N)c2F)c1 | 118 to 120
15 | Cc1ccccc1CNC(=O)N1Cc2ccccc2-n2nc(C(C)(C)C)cc21 | 180 to 181
16 | Cc1c(NC(=O)N2CC[C@H](O[Si](C)(C)C(C)(C)C)[C@H]2CO)ccc(C#N)c1Cl | 174 to 176
17 | Cn1cncc1C(O)c1ccc2c(c1)c(-c1cccc(Cl)c1)nc1nnnn12 (stereo not drawn) | 190
18 | CNC(=O)c1ccccc1-c1cc(-c2ccccc2)on1 | 159 to 160
19 | O=Cc1ccc(-c2nc(Oc3ccccc3)cc(Oc3ccccc3)n2)cc1 | 143 to 145
20 | CCC(Cn1nc(-c2ccccc2)c(-c2ccccc2)c(C#N)c1=O)[N+](=O)[O-] (stereo not drawn) | 154 to 155
21 | COC(=O)c1ccc(-n2ccc(C)n2)cc1C(F)(F)F | 59 to 61
22 | O=C(CN1CCCC1)Nc1ccc(-c2cc(-c3c[nH]nc3-c3ccccn3)ccn2)cc1 | 188
23 | CCN(CC)CC1CCCCN1CC(=O)N1c2nc(C)cc(C)c2NC(=O)c2cccc(C)c21 (stereo not drawn) | 213 to 215
24 | CC(C)C[C@H](O)[C@H](O)[C@H](CC1CCCCC1)NC(=O)OC(C)(C)C | 128 to 130
25 | CNc1nc(F)c(OC(F)F)c(Cl)n1 | 57 to 61

Row | SMILES | melting point [°C]
26 | O=C1Nc2cc(C(F)(F)F)ccc2Oc2ccccc21 | 246 to 247
27 | CN1c2ccccc2C(c2ccccc2Cl)=Nc2cccnc21 | 132 to 133
28 | CCCC(=O)c1cnc2ccc(COCc3ccccc3)cc2c1Cl | 85 to 86
29 | OC1CCc2c(Cl)cc(Cl)cc2C1 (stereo not drawn) | 84 to 86
30 | Oc1cccc2oc(Cc3cccc(C(F)(F)F)c3)nc12 | 157 to 158
31 | O=C(Nc1cc(Cl)cc(Cl)c1)c1cc(Br)ccc1O | 243 to 244
32 | O=C1NC(=S)SC1=Cc1ccc(OCc2ccccc2-c2ccccc2C(=O)O)cc1 | > 225
33 | COc1ccc(S(=O)(=O)C2(C(=O)O)CCN(Cc3ccc(Br)cc3)CC2)cc1 | 215
34 | CC(=O)NC[C@H]1CN(c2ccc(C3CCN(C=O)CC3)c(F)c2)C(=O)O1 | 186 to 187
35 | CSc1ccc(-n2c(-c3ccc(F)cc3)nc(SC)c(C#N)c2=O)cc1 | 204 to 207
36 | O=C1c2ccccc2C=C(Cl)C(Cl)c2ccccc21 (stereo not drawn) | 123 to 125
37 | Cc1nc(-c2cc(Cl)ccc2Cl)n2c1nnc1ccc(N3CCCCC3)cc12 | 158 to 160
38 | N#CCCOc1ccccc1OCCC#N | 124 to 125
39 | O=C(CCl)Nc1ccc2c(c1NC(=O)Cc1ccc(F)cc1)C(=O)c1ccccc1C2=O | 213 to 214
40 | O=C(O)CCC(=NO)c1ccc(-n2cccn2)cc1 | 128 to 130
41 | COCc1c(C=NO)ncc2[nH]c3cccc(Cc4ccc(Cl)cc4)c3c12 | 224 to 228
42 | Nc1nc(C(=O)C(=O)O)cs1 | > 200
43 | O=[N+]([O-])c1cc(F)cc2c1OCC2 | 113 to 114
44 | O=C(NCC1CCCCC1)c1c(Cl)ccc2nc(N3CCC(c4nnn[nH]4)CC3)ccc12 | 252 to 255
45 | N#CC(C#N)C(=O)c1ccc2ccccc2c1 | 121
46 | C#CCn1c(=O)sc2cc(F)c(-c3ccc(C(F)(F)F)n(C)c3=O)cc21 | 150 to 151
47 | COc1ccc(-c2ccc(-c3ccc(OC)cc3)c(-c3ccc(OCc4ccccc4)cc3)n2)cc1 | 99 to 102
48 | COCCCCCCCCCCCCCCSCCCO | 35 to 37
49 | CCN(CC)C(=O)c1cccs1 | 50 to 52
50 | COc1cc2c(-c3cc4cccnc4[nH]3)cn(C)c2cc1OC(C)C | 216

Row | SMILES | melting point [°C]
51 | C[C@@H](c1ccc(F)cc1)N1CCN(c2cc(Oc3cc(F)cc4[nH]c(=O)c(N)nc34)ncn2)CC1 | 288
52 | COC(=O)C1C(C)CC2C3CCC4CC(O)CCC4(C)C3C(=O)CC21C (stereo not drawn) | 173 to 174
53 | CC1(C)Oc2cc3nonc3cc2C(N2CCC(O)C2=O)C1O (stereo not drawn) | 195 to 196
54 | CC1Cc2cc(C(=O)O)ccc2C1=O (stereo not drawn) | 189 to 194
55 | COc1ccc(NC(=O)C#Cc2ccc(CN3CCCCC3)cc2)cc1 | 170
56 | NCC(c1ccc(OCc2ccccc2)cc1)C1CCCCC1O (mixture of isomers) | 160 to 161
57 | COc1ccc(C(=O)NC2N=C(c3ccccc3F)c3ccccc3NC2=O)cc1 (racemic) | 231 to 233
58 | CCN(CC)CCNc1ccc(CNC)c2sc3ccc(O)cc3c(=O)c12 | 167 to 169
59 | COC(=O)C1(NC(C)=O)CCc2cc(OC)ccc2C1 (stereo not drawn) | 153 to 154
60 | CCOC(=O)Cn1c(=O)[nH]c(=O)c2ccc(Cl)cc21 | 242 to 243
61 | COc1ccc2c(c1)Sc1ccc(F)cc1C(N1CCN(CCN3CCOC3=O)CC1)C2 (stereo not drawn) | 177 to 179
62 | O=C1c2ccccc2C(=O)N1OCc1cc(Cl)c2c(c1Cl)OC(c1ccccc1)(c1ccccc1)O2 | 127 to 129
63 | CNC(=O)c1ccc(C=CC(=O)Nc2cccc(-c3ccc(C)c(COc4cccc5ccc(C)nc45)c3C)c2)cc1 | 234 to 238
64 | FC(F)(F)c1ccc2nccc(Br)c2c1 | 56
65 | COc1cc(OC)cc(Oc2nc(N)n3nc(-c4ccco4)nc3n2)c1 | 248 to 250
66 | CCCCCCCCCCCCCCOc1ccc(C(=O)Nc2ccccc2)cc1 | 124 to 126
67 | Fc1ccc(C(F)(F)C(F)(F)c2ccccc2Br)cc1 | 52 to 53.5
68 | COc1cc(CCNC(=O)[C@@H](NS(C)(=O)=O)C(C)C)ccc1OCC#Cc1ccccc1 | 130 to 132
69 | Cc1noc(NS(=O)(=O)c2cc3ccccc3s2)c1C | 157 to 160
70 | Cn1cc(C(=O)NCc2ccc(Cl)cc2)c(=O)c2cc(CN3CCOCC3)cc(C#CCC(CO)CO)c21 | 190 to 193
71 | N=C(N)c1ccc2nc(-c3ccc(-c4nc5ccc(C(=N)N)cc5[nH]4)o3)[nH]c2c1 | > 300
72 | O=C(Nc1ccc2[nH]c(=O)sc2c1)C(=O)N1CCC(Cc2ccc(F)cc2)CC1 | 224 to 226
73 | O=C(C=Cc1ccc2c(c1)OCO2)C1C(=O)CCC1=O | 181 to 182
74 | C=CC(C)c1cc(C)c2c(c1O)C(N(C)C(C)=O)C1CCCCC21 (stereo not drawn) | 143 to 145
75 | CC(=O)Nc1nc(/C=C/c2ccc([N+](=O)[O-])cc2)c(-c2ccc(S(C)(=O)=O)cc2)s1 | 294 to 295

Row | SMILES | melting point [°C]
76 | CNC(=O)C(NC(=O)c1ccc(F)cc1C(F)(F)F)C(O)C(F)(F)F (stereo not drawn) | 212
77 | O=[N+]([O-])c1cccc2c1nnn2C1CCCC(Cl)C1Cl (stereo not drawn) | 145 to 148
78 | COC(=O)c1nc(S)n(C(c2ccccc2)c2ccccc2)c1C(=O)OC | 154
79 | COC(=O)c1ccc([N+](=O)[O-])c(OCC(N)=O)c1 | 138 to 139
80 | Clc1ccc(C(Cn2ccnc2)C2CCCC2)c(Cl)c1 (stereo not drawn) | 97.6
81 | CCCOc1cc(C)c(C(=O)O)c(OCc2ccc(OCCc3nc(-c4ccccc4)oc3C)cc2)c1 | 50 to 52
82 | CCOC(=O)CCC(=O)Oc1cccc(-c2cn3c(n2)sc2ccccc23)c1 | 70 to 74
83 | CCOC(=O)C1(C(=O)O)CN(C2CC2)c2nc3cc(N4CC(N)C4C)c(F)cc3cc2C1=O (stereo not drawn) | 170
84 | COc1ccc(OCCO)c(C=O)c1 | 68 to 72
85 | COc1cccc(N2CCN(C(=O)[C@](C)(C#N)[C@H](c3ccccc3OC)c3cccc4ccccc34)CC2)c1 | 147 to 148
86 | FC(F)(F)c1cc(CO[C@@H]2CCCN(Cc3nc4ccccc4[nH]3)[C@@H]2c2ccccc2)cc(C(F)(F)F)c1 (relative stereo) | 152 to 153
87 | Nc1cc(C(=O)NNC(=O)Cc2cccc(O)c2)ccc1O | 264 to 265
88 | Cc1cc(S(=O)(=O)N(C)CC(O)(CO)c2cccc(Cl)n2)ccc1Cl (stereo not drawn) | 131 to 132
89 | NNC(=O)CCc1cccc(C(F)(F)F)c1 | 80 to 81
90 | CC(C)(C)c1ccn(-c2ccc(C(=O)c3cccc4c3Nc3ncccc3CN4)c(C(F)(F)F)c2)n1 | 136 to 140
91 | CONC(=O)CON1C(=O)c2ccccc2C1=O | 179
92 | CCN(C(=O)Cc1c(F)cccc1F)C(c1cnccc1C(F)(F)F)C(C)C (stereo not drawn) | 122
93 | CC(C)(C)c1cc(CC(S)C(=O)O)cc(C(C)(C)C)c1O (stereo not drawn) | 137 to 140
94 | O=C(NC(Cc1ccc(OCc2ccccc2)cc1)C(=O)O)c1cn2cc(-c3ccccc3Cl)ccc2n1 (stereo not drawn) | 228
95 | CCCC(N(NC(=O)OC(C)(C)C)C(=O)c1cc(C)cc(C)c1)C(C)(C)C (stereo not drawn) | 116 to 118
96 | COc1cc(C(=O)N2CCN(C(=O)C3=Cc4cc(C)c(C)cc4OCC3)CC2)cc(OC)c1OC | 177 to 178
97 | Cc1cc2ccccc2c(-c2cccc(I)c2)n1 | 77 to 78
98 | CCOCc1nc2c(N)nc3cc(-c4cccc(CO)c4)cnc3c2n1CC(C)(C)O | 186 to 187
